This is an account of results in article PMC7837296, “A novel LysR‐type regulator negatively affects biosynthesis of the immunosuppressant brasilicardin” (Engineering in Life Sciences, 2020).

Experiment [1] deals with T1, LysRNt (LysRNtHis6) (Nocardia terpenica, UniProt A0A164MN72).
T1 construct: gene AWN90_33365; full length, C-terminal His6 tag kept (pET-21a(+)lysRNt), E. coli Rosetta 2(DE3), Talon column; only monomer seen; re-annotated start (not the N-terminally extended lysRlnNt)
T1 sequence (A0A164MN72 1-303): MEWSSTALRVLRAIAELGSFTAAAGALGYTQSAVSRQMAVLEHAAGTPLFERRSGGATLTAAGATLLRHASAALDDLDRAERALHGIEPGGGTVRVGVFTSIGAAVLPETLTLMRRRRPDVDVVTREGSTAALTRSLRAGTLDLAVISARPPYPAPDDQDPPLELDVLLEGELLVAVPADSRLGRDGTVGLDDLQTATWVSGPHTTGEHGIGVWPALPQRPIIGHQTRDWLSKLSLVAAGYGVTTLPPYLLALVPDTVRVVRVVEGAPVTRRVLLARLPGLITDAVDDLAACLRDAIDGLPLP
In words: fluorescence thermal shift, SYPRO Orange. The experiment is classed as binding. The settings on record: read-out: dTmD at 0.6 mM.

The target in experiment [2] is T1, LysRNt (LysRNtHis6). In words: EMSA with […]-labelled bra12p DNA. Conditions: 500 nM protein, PBS, 1% ethanol. The format is binding. A general note: Mobility shift assays separate free from complexed probe on a gel.

`O=C(O)c1ccccc1` [compound 2, sodium benzoate]: the ΔTm at 600 µM on LysRNt (LysRNtHis6) [1] was determined as 0.19 °C. Also, the “% DNA-protein complex remaining at 1 mM” value on LysRNt (LysRNtHis6) [2] (weak effect) was 84%.

As for `O=C(O)c1ccccc1O` [compound 4, salicylic acid], the ΔTm at 600 µM on LysRNt (LysRNtHis6) [1] was found to be 0.74 °C. Further, on LysRNt (LysRNtHis6) [2] (compound lowers DNA binding), the “% DNA-protein complex remaining at 1 mM” value was 47%.

As to `O=C(O)c1cccc(O)c1` [compound 5, 3-hydroxybenzoic acid], the ΔTm at 600 µM at LysRNt (LysRNtHis6) [1] was found to be 0.17 °C. In addition, on LysRNt (LysRNtHis6) [2] (weak effect), the “% DNA-protein complex remaining at 1 mM” value was found to be 86%.
